# Source: patent publication US7759510B2, “Platinum complexes and methods of use” (University of South Florida, priority 2003, dated 2010)
# System: A549 cells
# Experiment: MTT assay, percent survival of A549 cells
# Assay type: cell-based
# Details: Table 9, A549
# Protocol: 1. Prepare a suspension of A549 cells at 2×10^5 cells per mL in supplemented DMEM/F12 growth medium.
# 2. Plate 2×10^4 cells per well in a 96 well cell culture plate by adding 100 μL of stock suspension to each well.
# 3. For each platinum compound (already in solution), prepare a readily usable stock solution in DMEM/F12 medium.
# 4. For each compound generate triplicate trials of 0, 10, 20, 30, 40, 50, 60, and 70 μM concentration. This is achieved in situ by adding appropriate volumes of stock solution to each well along with the volume of untreated medium necessary to generate the desired concentration in a final volume of 200 μL.
# 5. Gently agitate plates to mix contents. Incubate at 37° C., 7% CO2 for 45 hours.
# 6. Add 20 μL of 5 mg/mL MTT solution (in PBS) to each well.
# 7. Gently agitate plates to mix contents and incubate an additional 3 hours to allow product development.
# 8. Remove plates from incubator and agitate to cause settling of formazan product.
# 9. Aspirate out liquid contents of each well using needle and syringe and discard.
# 10. Add 200 μL DMSO to each well to dissolve formazan product.
# 11. Agitate plates until all of the formazan product is in solution and no purple crystals remain on the bottom surface of the wells.
# 12. Read the absorbance of each well at […] using Varian software for Cary 50 UV-vis Spectrophotometer with fiber optic probe accessory.
# (§1) MTT assays are used for the quantitative determination of cellular proliferation and activation and for the quantitation of in vitro tumor cell sensitivity to anti-cancer compounds. The assay is based on the cleavage of the yellow tetrazolium salt MTT into purple colored formazan by metabolically active cells. Solubilized formazan product can be photometrically quantitated using an ELISA plate reader. A decrease in the number of living cells results in a decrease in total metabolic activity which leads to a decrease in color formation. Platinum complexes of the present invention were tested in MTT assays using A549 cells to determine anti-cancer cell activity. […] FIGS. 1, 2, and 4 show percent survival versus platinum complex concentration in graphical form.
# as §1, with “FIGS. 8, 9,” for “FIGS. 1, 2,”, “and 11” for “and 4”
Molecule,Average Absorbance (10 μM),Percent Survival (10 μM) [%],Average Absorbance (20 μM),Percent Survival (20 μM) [%],Average Absorbance (30 μM),Percent Survival (30 μM) [%],Average Absorbance (40 μM),Percent Survival (40 μM) [%],Average Absorbance (50 μM),Percent Survival (50 μM) [%],Average Absorbance (60 μM),Percent Survival (60 μM) [%],Average Absorbance (70 μM),Percent Survival (70 μM) [%]
Caffeine,0.4606,72.24,0.3935,61.71,0.2016,31.62,0.08893,13.95,0.04983,7.815,0.06103,9.571,0.05103,8.003
Cn1c(=O)c2[nH]cnc2n(C)c1=O [Theophylline],0.5681,89.1,0.3864,60.6,0.2159,33.86,0.0585,9.174,0.0047,0.7371,0.03173,4.976,−0.001567,−0.2457
